# What was measured:
# [1] = tested on: Staphylococcus epidermidis ATCC 12228; assay: Growth of beneficial skin bacteria, single culture with 1,3-propanediol (absorbance 600 nm); format: cell-based; settings: for Effect on the growth of beneficial bacteria (S. epidermidis): absorbance 600 nm, 2 to 16 hours vs control
# Procedure: (§1) • 1) Staphylococcus epidermidis ATCC 12228 and Staphylococcus aureus ATCC 6538 strains were obtained from ThermoFisher Scientific and cultured in tryptic soy broth (culture conditions: 32° C. for 18 hours). After culturing, they were diluted with 0.85% NaCl to adjust the absorbance (600 nm) to 0.5-0.6. • 2) 1,3-propanediol was obtained from Sigma-Aldrich. • 3) 2-methyl-1,3-propanediol, 1,3-butanediol, 2,3-butanediol, 1,2-pentanediol, and 1,2-hexanediol were all obtained from Sigma-Aldrich. • 4) Fructan was obtained from Sigma-Aldrich. • 5) Yeast extract was obtained from Sigma-Aldrich.
# The effect of 1,3-propanediol on the growth of Staphylococcus epidermidis ATCC 12228 was analyzed.
# (§2) For this purpose, 1,3-propanediol was diluted with 10% tryptic soy broth to prepare concentrations of 0.05, 0.1, 0.2, 0.5, 1.0, 3.0, 5.0, 10, 20, and 25 wt %.
# After adding the prepared 1,3-propanediol at each concentration to 10% tryptic soy broth, S. epidermidis was inoculated to achieve a concentration of 1% (v/v).
# (§3) Afterwards, the cells were cultured at a temperature of 32° C. for 24 hours, and the absorbance (600 nm) was measured at 2-hour intervals to analyze the growth of beneficial skin bacteria.
# (§4) At this time, 10% tryptic soy broth to which 1,3-propanediol was not added was set as a control group.
# The criteria for determining the effect on the growth of beneficial bacteria were as follows: when the absorbance (600 nm) was measured while culturing for 2 to 16 hours after inoculation of S. epidermidis, if the absorbance was higher than that of 10% tryptic soy broth (control group) to which 1,3-propanediol was not added, it was determined that the growth of S. epidermidis was promoted. If there was no difference, it was determined that there was no effect, and if the absorbance was lower, it was determined that there was inhibition. […] As a result, it can be seen that when the concentration of 1,3-propanediol is in a specific range exceeding 0.05 wt % and less than 20 wt %, it promotes the growth of S. epidermidis.
# S. aureus [2] = assay: Combination of 1,3-propanediol and yeast extract, growth of harmful bacteria; format: cell-based, Staphylococcus aureus; settings: 1,3-propanediol 1.5 wt %; yeast extract 0.00 wt %
# Procedure: as §1
# (§5) In order to evaluate the effect of 1,3-propanediol and fructan on the skin microbiome, the effect on the growth rate of Staphylococcus epidermidis ATCC 12228, a representative beneficial skin bacterium, and Staphylococcus aureus ATCC 6538, a harmful skin bacterium, was confirmed. Staphylococcus epidermidis ATCC 12228 and Staphylococcus aureus ATCC 6538 were cultured in tryptic soy broth at 32° C. for 18 hours or more, then diluted with 0.85% NaCl and adjusted to have an absorbance (600 nm) of 0.5 to 0.6.
# (§6) S. epidermidis and S. aureus prepared above were inoculated to achieve a concentration of 1% (v/v) in 10% tryptic soy broth to which 1,3-propanediol was added at a fixed concentration of 1.5 wt % and fructan was added at each concentration in the table below. […]
# [3] = tested on: Staphylococcus epidermidis ATCC 12228; assay: Combination of 1,3-propanediol and fructan, growth of beneficial bacteria; format: cell-based; settings: 1,3-propanediol 1.5 wt %; fructan 0.00 wt %
# Procedure: as §1, §5, §6
# [4] = tested on: Staphylococcus aureus ATCC 6538; assay: Growth of harmful skin bacteria, single culture with 1,3-propanediol (absorbance 600 nm); format: cell-based; settings: for Effect on the growth of harmful bacteria (S. aureus): absorbance 600 nm, 2 to 16 hours vs control
# Procedure: as §1
# The effect of 1,3-propanediol on the growth of Staphylococcus aureus ATCC 6538 was analyzed.
# as §2
# After adding 1,3-propanediol prepared at each concentration to 10% tryptic soy broth, S. aureus was inoculated to achieve a concentration of 1% (v/v).
# as §3, §4
# The criteria for determining the effect on the growth of harmful bacteria were as follows: when the absorbance (600 nm) was measured while culturing for 2 to 16 hours after inoculation of S. aureus, if the absorbance was lower than that of 10% tryptic soy broth (control group) to which 1,3-propanediol was not added, it was determined that the growth of S. aureus was inhibited. If there was no difference in absorbance, it was determined that there was no effect.
# [5] = tested on: Staphylococcus aureus ATCC 6538; assay: Combination of 1,3-propanediol and fructan, growth of harmful bacteria; format: cell-based; settings: 1,3-propanediol 1.5 wt %; fructan 0.00 wt %
# Procedure: as §1, §5, §6
# S. epidermidis [6] = assay: Comparison of diol compounds, growth of beneficial bacteria; format: cell-based, Staphylococcus epidermidis; parameters: key to Effect on the growth of beneficial bacteria (S. epidermidis): ++: Growth promotion; +: No effect; −: Growth inhibition; − −: 50% or more growth inhibition
# Text: (§7) FIG. 4 illustrates the results of a comparative analysis of the effects of diol compounds, specifically 1,3-propanediol, 2-methyl-1,3-propanediol, 1,3-butanediol, 2,3-butanediol, 1,2-pentanediol, and 1,2-hexanediol on the growth of harmful bacteria (upper graph) and beneficial bacteria (lower graph). FIG. 4A: 1,3-propanediol, FIG. 4B: 2-methyl-1,3-propanediol; FIG. 4C: 1,3-butanediol; FIG. 4D: 2,3-butanediol; FIG. 4E: 1,2-pentanediol; FIG. 4F: 1,2-Hexanediol.
# as §1
# S. aureus [7] = assay: Comparison of diol compounds, growth of harmful bacteria; format: cell-based, Staphylococcus aureus
# Text: as §7, §1
# S. epidermidis [8] = assay: Combination of 1,3-propanediol and yeast extract, growth of beneficial bacteria; format: cell-based, Staphylococcus epidermidis; settings: 1,3-propanediol 1.5 wt %; yeast extract 0.00 wt %
# [9] = when the concentration increases
smiles,measurement,setting,value
"OCCCO [1,3-propanediol]",Effect on the growth of beneficial bacteria (S. epidermidis),[1]; 0.05 wt %,No effect
same,Effect on the growth of beneficial bacteria (S. epidermidis),[1]; 0.1 wt %,Promoted
same,Effect on the growth of beneficial bacteria (S. epidermidis),[1]; 0.2 wt %,Promoted
same,Effect on the growth of beneficial bacteria (S. epidermidis),[1]; 0.5 wt %,Promoted
same,Effect on the growth of beneficial bacteria (S. epidermidis),[1]; 1.0 wt %,Promoted
same,Effect on the growth of beneficial bacteria (S. epidermidis),[1]; 3.0 wt %,Promoted
same,Effect on the growth of beneficial bacteria (S. epidermidis),[1]; 5.0 wt %,Promoted
same,Effect on the growth of beneficial bacteria (S. epidermidis),[1]; 10 wt %,Promoted
same,Effect on the growth of beneficial bacteria (S. epidermidis),[1]; 20 wt %,No effect
same,Effect on the growth of beneficial bacteria (S. epidermidis),[1]; 25 wt %,Inhibited
same,Concentration that inhibited the growth of S. epidermidis,[1]; single culture,exceeded 25 wt %
same,Effect on the growth of harmful bacteria (S. aureus),S. aureus [2],++ (Significant growth inhibition (change in absorbance (decrease) 5%))
same,Effect on the growth of beneficial bacteria (S. epidermidis),[3],+ (Mild growth promotion (change in absorbance (increase) 3%))
same,Effect on the growth of harmful bacteria (S. aureus),[4]; 0.05 wt %,No effect
same,Effect on the growth of harmful bacteria (S. aureus),[4]; 0.1 wt %,No effect
same,Effect on the growth of harmful bacteria (S. aureus),[4]; 0.2 wt %,No effect
same,Effect on the growth of harmful bacteria (S. aureus),[4]; 0.5 wt %,No effect
same,Effect on the growth of harmful bacteria (S. aureus),[4]; 1.0 wt %,No effect
same,Effect on the growth of harmful bacteria (S. aureus),[4]; 3.0 wt %,Inhibited
same,Effect on the growth of harmful bacteria (S. aureus),[4]; 5.0 wt %,Inhibited
same,Effect on the growth of harmful bacteria (S. aureus),[4]; 10 wt %,Inhibited
same,Effect on the growth of harmful bacteria (S. aureus),[4]; 20 wt %,Inhibited
same,Effect on the growth of harmful bacteria (S. aureus),[4]; 25 wt %,Inhibited
same,Concentration that did not inhibit the growth of S. aureus,[4]; single culture,≤ 1.0 wt %
same,Effect on the growth of harmful bacteria (S. aureus),[5],++ (Significant growth inhibition (change in absorbance (decrease) 5%))
same,Effect on the growth of beneficial bacteria (S. epidermidis),S. epidermidis [6]; diol compound 0.1 wt %,++
same,Effect on the growth of beneficial bacteria (S. epidermidis),S. epidermidis [6]; diol compound 1 wt %,++
same,Effect on the growth of beneficial bacteria (S. epidermidis),S. epidermidis [6]; diol compound 5 wt %,+
same,Effect on the growth of beneficial bacteria (S. epidermidis),S. epidermidis [6]; diol compound 10 wt %,+
same,Effect on the growth of beneficial bacteria (S. epidermidis),S. epidermidis [6]; diol compound 20 wt %,+
same,Growth of beneficial bacteria (summary),S. epidermidis [6]; [9],the growth of beneficial bacteria is promoted
same,Effect on the growth of harmful bacteria (S. aureus),S. aureus [7]; diol compound 0.1 wt %,++
same,Effect on the growth of harmful bacteria (S. aureus),S. aureus [7]; diol compound 1 wt %,++
same,Effect on the growth of harmful bacteria (S. aureus),S. aureus [7]; diol compound 5 wt %,+++ (50% or more inhibition)
same,Effect on the growth of harmful bacteria (S. aureus),S. aureus [7]; diol compound 10 wt %,+++ (50% or more inhibition)
same,Effect on the growth of harmful bacteria (S. aureus),S. aureus [7]; diol compound 20 wt %,+++ (50% or more inhibition)
same,Growth of harmful bacteria (summary),S. aureus [7]; [9],the growth of harmful bacteria is inhibited
same,Effect on the growth of beneficial bacteria (S. epidermidis),S. epidermidis [8],+ (Mild growth promotion (change in absorbance (increase) 3%))
"CCCC(O)CO (stereo not shown) [1,2-pentanediol]",Effect on the growth of beneficial bacteria (S. epidermidis),S. epidermidis [6]; diol compound 0.1 wt %,++
same,Effect on the growth of beneficial bacteria (S. epidermidis),S. epidermidis [6]; diol compound 1 wt %,−
same,Effect on the growth of beneficial bacteria (S. epidermidis),S. epidermidis [6]; diol compound 5 wt %,− − (50% or more growth inhibition)
same,Effect on the growth of beneficial bacteria (S. epidermidis),S. epidermidis [6]; diol compound 10 wt %,− − (50% or more growth inhibition)
same,Effect on the growth of beneficial bacteria (S. epidermidis),S. epidermidis [6]; diol compound 20 wt %,− − (50% or more growth inhibition)
same,Effect on the growth of harmful bacteria (S. aureus),S. aureus [7]; diol compound 0.1 wt %,+
same,Effect on the growth of harmful bacteria (S. aureus),S. aureus [7]; diol compound 1 wt %,+
same,Effect on the growth of harmful bacteria (S. aureus),S. aureus [7]; diol compound 5 wt %,+++ (50% or more inhibition)
same,Effect on the growth of harmful bacteria (S. aureus),S. aureus [7]; diol compound 10 wt %,+++ (50% or more inhibition)
same,Effect on the growth of harmful bacteria (S. aureus),S. aureus [7]; diol compound 20 wt %,+++ (50% or more inhibition)
"CC(CO)CO [2-methyl-1,3-propanediol]",Effect on the growth of beneficial bacteria (S. epidermidis),S. epidermidis [6]; diol compound 0.1 wt %,+
same,Effect on the growth of beneficial bacteria (S. epidermidis),S. epidermidis [6]; diol compound 1 wt %,+
same,Effect on the growth of beneficial bacteria (S. epidermidis),S. epidermidis [6]; diol compound 5 wt %,−
same,Effect on the growth of beneficial bacteria (S. epidermidis),S. epidermidis [6]; diol compound 10 wt %,− − (50% or more growth inhibition)
same,Effect on the growth of beneficial bacteria (S. epidermidis),S. epidermidis [6]; diol compound 20 wt %,− − (50% or more growth inhibition)
same,Effect on the growth of harmful bacteria (S. aureus),S. aureus [7]; diol compound 0.1 wt %,+
same,Effect on the growth of harmful bacteria (S. aureus),S. aureus [7]; diol compound 1 wt %,+
same,Effect on the growth of harmful bacteria (S. aureus),S. aureus [7]; diol compound 5 wt %,++
same,Effect on the growth of harmful bacteria (S. aureus),S. aureus [7]; diol compound 10 wt %,+++ (50% or more inhibition)
same,Effect on the growth of harmful bacteria (S. aureus),S. aureus [7]; diol compound 20 wt %,+++ (50% or more inhibition)
